Results on one compound are retold here after patent US4703047A, “1-Cyclopropyl-1,4-dihydro-4-oxo-7-(4-(2-oxo-1,3-dioxol-4-yl- methyl)-1-piperazinyl)-3-quinolinecarboxylic acid antibacterial agents” (Bayer Aktiengesellschaft, priority 1985, dated 1987).

Assay in all cases: MIC, agar dilution test/Isosensitest agar
Conditions in all cases: unit assumed
For orientation: Agar dilution tests growth on a series of plates holding different concentrations.

Test [1] concerns Klebsiella 8085. Format: cell-based. The text has this:
(§1) |(agar dilution test/Isosensitest agar)

Test [2] deals with Staphylococcus FK 422. The test is classed as cell-based.
Description: as §1

Test [3] deals with Providencia 12012. Format: cell-based.
Description: as §1

For test [4], the system named is Proteus vulgaris 1017. The test is classed as cell-based.
Description: as §1

In test [5] the test system is Pseudomonas Ellsworth. The test is classed as cell-based.
Description: as §1

For test [6], the system named is Serratia 16040. The test is classed as cell-based.
Description: as §1

For test [7], the system named is Streptococcus 27101. The test is classed as cell-based.
Description: as §1

Test [8] deals with E. coli Neumann. The test is classed as cell-based, Escherichia coli.
Description: as §1

Values after ≈ are worked out from the molar mass of the structure shown.

`Cc1oc(=O)oc1CN1CCN(c2cc3c(cc2F)c(=O)c(C(=O)O)cn3C2CC2)CC1` [Example 1, 1-Cyclopropyl-6-fluoro-1,4-dihydro-7-[4-(5-methyl-2-oxo-1,3-dioxol-4-yl-methyl)-1-piperazinyl]-4-oxo-3-quinolinecarboxylic acid]: the MIC (in general, the lowest concentration found to suppress growth) in test [1] was no more than 0.015 µg/mL; in test [2], 0.25 µg/mL (≈ 0.564 µM); in test [3], 0.03 µg/mL (≈ 0.0677 µM); in test [4], no more than 0.015 µg/mL; in test [5] it was 0.06 µg/mL (≈ 0.135 µM); in test [6], 8 µg/mL (≈ 18 µM). Also, the MIC in test [7] is 0.5 µg/mL (≈ 1.13 µM); in test [8], no more than 0.015 µg/mL.
